Results as given in the supplement of paper PMC10307832.

Assays:
Test in all cases: relative viability (nuclei count vs DMSO), 5 days (fraction); higher = more cells survive
Zebularine + Phenformin = compound: O=c1ncccn1[C@@H]1O[C@H](CO)[C@@H](O)[C@H]1O [Zebularine] + N=C(N)NC(=N)NCCc1ccccc1 [Phenformin] (partner 250 µM)
In short: (§1)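 Lung cancer cell lines, seeded in 1536-well plates, were treated the following day by pin tool with a single drug or with five library-drug doses (not always all listed) in √10 steps on top of a fixed anchor-drug dose. Cells were fixed and nuclei stained in one step after 5 days, and nuclei were counted. Relative viability is the nuclei count for treated wells divided by that for vehicle wells, reported as medians of duplicate plates.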

BI-D1870 + Pictilisib = compound: CC(C)CCN1c2nc(Nc3cc(F)c(O)c(F)c3)ncc2N(C)C(=O)C1C [BI-D1870] + CS(=O)(=O)N1CCN(Cc2cc3nc(-c4cccc5[nH]ncc45)nc(N4CCOCC4)c3s2)CC1 [Pictilisib] (partner 1 µM)
In short: as §1

BI-D1870 + AZD7762 = compound: CC(C)CCN1c2nc(Nc3cc(F)c(O)c(F)c3)ncc2N(C)C(=O)C1C [BI-D1870] + NC(=O)Nc1cc(-c2cccc(F)c2)sc1C(=O)N[C@H]1CCCNC1 [AZD7762] (partner 0.2 µM)
In short: as §1

BI-D1870 + Trametinib = compound: CC(C)CCN1c2nc(Nc3cc(F)c(O)c(F)c3)ncc2N(C)C(=O)C1C [BI-D1870] + CC(=O)Nc1cccc(-n2c(=O)n(C3CC3)c(=O)c3c(Nc4ccc(I)cc4F)n(C)c(=O)c(C)c32)c1 [Trametinib] (partner 0.02 µM)
In short: as §1

Cell Line	relative viability (Zebularine + Phenformin; first compound 1 µM)	relative viability (Zebularine + Phenformin; first compound 3.162 µM)	relative viability (Zebularine + Phenformin; first compound 10 µM)	relative viability (Zebularine + Phenformin; first compound 31.62 µM)	relative viability (Zebularine + Phenformin; first compound 100 µM)	relative viability (BI-D1870 + Pictilisib; first compound 0.04 µM)	relative viability (BI-D1870 + Pictilisib; first compound 0.1265 µM)	relative viability (BI-D1870 + Pictilisib; first compound 0.4 µM)	relative viability (BI-D1870 + Pictilisib; first compound 1.265 µM)	relative viability (BI-D1870 + Pictilisib; first compound 4 µM)	relative viability (BI-D1870 + AZD7762; first compound 0.04 µM)	relative viability (BI-D1870 + AZD7762; first compound 0.1265 µM)	relative viability (BI-D1870 + AZD7762; first compound 0.4 µM)	relative viability (BI-D1870 + AZD7762; first compound 1.265 µM)	relative viability (BI-D1870 + AZD7762; first compound 4 µM)	relative viability (BI-D1870 + Trametinib; first compound 0.04 µM)	relative viability (BI-D1870 + Trametinib; first compound 0.1265 µM)	relative viability (BI-D1870 + Trametinib; first compound 0.4 µM)	relative viability (BI-D1870 + Trametinib; first compound 1.265 µM)	relative viability (BI-D1870 + Trametinib; first compound 4 µM)
201T	0.527	0.485	0.327	0.492	0.368	0.672	0.624	0.716	0.684	0.642	0.663	0.534	0.602	0.618	0.696	0.694	0.683	0.703	0.705	0.715
NCI-H2170	0.422	0.424	0.376	0.41	0.243	0.287	0.333	0.347	0.301	0.302	0.977	0.882	0.844	0.923	0.654	1	0.829	0.887	0.939	0.874
NCI-H460	0.601	0.592	0.364	0.127	0.0588	0.437	0.364	0.31	0.391	0.33	0.702	0.621	0.566	0.993	0.829	0.133	0.117	0.126	0.105	0.0577
HCC-15	0.532	0.496	0.247	0.417	0.308	0.792	0.661	0.674	0.79	0.509	0.725	1.18	1.04	1.17	1.08	0.376	0.35	0.371	0.444	0.392
LCLC-103H	0.365	0.337	0.261	0.391	0.303	0.631	0.573	0.563	0.573	0.494	0.768	0.655	0.804	0.871	0.741	0.692	0.616	0.653	0.7	0.63
NCI-H441	0.803	0.73	0.366	0.309	0.396	0.498	0.374	0.518	0.466	0.492	1.29	1.09	1.03	1.09	1.1	0.524	0.417	0.463	0.578	0.378
EPLC-272H	0.272	0.286	0.227	0.255	0.238	0.364	0.295	0.275	0.312	0.243	0.207	0.17	0.257	0.21	0.255	0.292	0.258	0.302	0.298	0.306
